Assay results as given in patent publication US20260317319A1, “NOVEL ERGOLINES AND METHODS OF TREATING MOOD DISORDERS” (Gilgamesh Pharma Inc., priority 2023, published 2026).
Like-named read-outs stand apart in the source and are kept apart here.

Columns and labels:
[1] = in vitro; type: in vitro ADME, rat; conditions: RLM (male Sprague-Dawley) 0.50 mg/mL, NADPH 1 mM, 1 μM compound, pH 7.4, 37° C., 60 min
Description: RLM Stability Pooled RLM from male Sprague-Dawley rats (Xenotech R1000) were used.

[2] = target: T1, 5-HT2B receptor (Homo sapiens, UniProt P41595); test: cell-based; type: cell-based; conditions: HEK293, agonist, Ca2+ flux, HEK293, max dose; read-out: 5-HT2B % Act @ Max Dose
T1 construct: expressed in transfected cells; host or cells: HEK293, stably transfected
Method: (§1) Functional Assays at 5-HT2A, 5-HT2B, and 5-HT1A. Agonist activity at 5-HT2A, 5-HT2B, 5HT2C and 5-HT1A receptors was determined using a FLIPR Ca^2+ flux assay at WuXi AppTec (Hong Kong) Limited according to their standard protocols. Briefly, stably transfected cells expressing the receptor of interest and Gα15 in the case of 5-HT1A (HEK293 for 5-HT2A and 5-HT2B; CHO cells for 5-HT1A) were grown and plated in a 384 well plate and incubated at 37° C. and 5% CO2 overnight. A solution of 250 mM probenecid in 1 mL FLIPR assay buffer was prepared fresh. This was combined with a fluorescent dye (Fluo-4 Direct™) to make a final assay concentration of 2.5 mM. […] The fluorescent dye was then added to the assay plate along with assay buffer to a final volume of 40 μL. The cell plate was incubated for 50 min at 37° C. and 5% CO2 and placed into the FLIPR Tetra along with the compound plate. 10 μL of references and compounds were then transferred from the compound plate into the cell plate and the fluorescent signal was read.

[3] = in vitro; type: in vitro ADME, mouse; conditions: MLM (male CD-1) 0.50 mg/mL, NADPH 1 mM, 1 μM compound, pH 7.4, 37° C., 60 min
Description: MLM Stability Pooled MLM from male CD-1 mice (BIOIVT M00501) were used.

[4] = in vitro; type: in vitro ADME, human; conditions: HLM 0.50 mg/mL, NADPH 1 mM, 1 μM compound, pH 7.4, 37° C., 60 min
[5] = target: T2, 5-HT2A receptor (Homo sapiens, UniProt P28223); test: cell-based; type: cell-based; conditions: agonist, beta-arrestin recruitment; for EC50: PathHunter, read-out: 5-HT2A Arrestin EC50; for Emax: max dose, read-out: 5-HT2A Arrestin % Act @ Max Dose
Method: Arrestin Functional Assay at 5-HT2A. Recruitment of beta-arrestin was determined using a PathHunter assay at Eurofins DiscoverX (Fremont, CA) according to their standard protocols. PathHunter GPCR beta-arrestin assays take advantage of DiscoverX's proprietary Enzyme Fragment Complementation technology. The GPCR is fused in frame with a small enzyme donor fragment ProLink™ (PK) and co-expressed in cells stably expressing a fusion protein of beta-arrestin and the larger, N-terminal deletion mutant of beta-galactosidase. Activation of the GPCR (5-HT2A receptor in this case) stimulates binding of beta-arrestin to the PK-tagged GPCR and forces complementation of the two enzyme fragments, resulting in the formation of an active beta-galactosidase enzyme. This interaction leads to an increase in enzyme activity that can be measured using chemiluminescent PathHunter Detection Reagents. Briefly, PathHunter cells expressing 5-HT2A receptors were seeded in a volume of 20 μL into 384-well plates and incubated at 37° C. for the appropriate time prior to testing. […] Plates were then imaged on a microplate reader and the agonist activity was calculated using the following formula: % Activity=100%×(mean RLU of test sample-mean RLU of vehicle control)/(mean MAX control ligand-mean RLU of vehicle control), where RLU=relative light units.

[6] = target: T3, 5-HT1A receptor (Homo sapiens, UniProt P08908); test: cell-based; conditions: CHO, agonist, Ca2+ flux, CHO cells with Gα15, max dose; read-out: 5-HT1A % Act @ Max Dose
T3 construct: expressed in transfected cells; host or cells: CHO cells, stably transfected
T3 sequence (P08908 1-422): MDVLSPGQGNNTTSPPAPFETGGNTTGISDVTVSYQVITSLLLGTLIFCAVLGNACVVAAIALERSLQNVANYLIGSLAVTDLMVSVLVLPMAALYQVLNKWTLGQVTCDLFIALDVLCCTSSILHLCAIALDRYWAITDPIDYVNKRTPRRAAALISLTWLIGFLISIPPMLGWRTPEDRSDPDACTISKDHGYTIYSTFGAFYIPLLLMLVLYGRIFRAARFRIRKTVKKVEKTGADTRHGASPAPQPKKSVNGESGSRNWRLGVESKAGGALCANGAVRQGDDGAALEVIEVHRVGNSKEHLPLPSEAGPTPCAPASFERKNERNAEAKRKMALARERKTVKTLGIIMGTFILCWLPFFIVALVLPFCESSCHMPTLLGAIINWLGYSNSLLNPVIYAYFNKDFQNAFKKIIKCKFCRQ
Method: as §1

[7] = target: T2, 5-HT2A receptor; test: cell-based; type: cell-based; set-up: expressed in transfected cells; host or cells: HEK293, stably transfected; conditions: HEK293, agonist, Ca2+ flux, HEK293, max dose; read-out: 5-HT2A % Act @ Max Dose
Method: as §1

[8] = target: T4, 5-HT1B receptor (Homo sapiens, UniProt P28222); test: cAMP accumulation functional assay at 5-HT1B; type: cell-based; conditions: agonist, cAMP accumulation, max dose; read-out: 5-HT1B % Act @ Max Dose
T4 construct: expressed in transfected cells
Method: Functional Assay at 5-HT1B. Agonist activity at 5-HT1B was determined using a CAMP accumulation protocol at WuXi AppTec (Hong Kong) Limited according to their standard protocols. Briefly, stably transfected cells were plated in an OptiPlate-384 well plate, incubated at RT for 60 mins, and cAMP standard solution (800 nM, 10 μL) was added to the blank well. Then, 10 μL detection reagent was added to each well, the plate incubated for 60 mins at RT, and the plate read using En Vision.

T1 sequence (P41595 whole entry): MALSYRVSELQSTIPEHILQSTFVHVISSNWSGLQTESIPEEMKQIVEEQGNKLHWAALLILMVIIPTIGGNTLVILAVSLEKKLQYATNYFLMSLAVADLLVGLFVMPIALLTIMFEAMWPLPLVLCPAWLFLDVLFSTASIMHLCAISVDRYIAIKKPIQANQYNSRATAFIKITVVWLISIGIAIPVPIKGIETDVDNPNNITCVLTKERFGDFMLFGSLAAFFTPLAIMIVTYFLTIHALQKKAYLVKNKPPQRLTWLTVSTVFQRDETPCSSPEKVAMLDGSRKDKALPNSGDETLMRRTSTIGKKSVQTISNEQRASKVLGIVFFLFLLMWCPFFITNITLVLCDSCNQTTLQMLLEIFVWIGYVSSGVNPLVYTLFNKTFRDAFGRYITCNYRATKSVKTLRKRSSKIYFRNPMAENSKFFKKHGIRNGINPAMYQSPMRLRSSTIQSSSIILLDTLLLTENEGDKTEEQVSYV
T4 sequence (P28222 whole entry): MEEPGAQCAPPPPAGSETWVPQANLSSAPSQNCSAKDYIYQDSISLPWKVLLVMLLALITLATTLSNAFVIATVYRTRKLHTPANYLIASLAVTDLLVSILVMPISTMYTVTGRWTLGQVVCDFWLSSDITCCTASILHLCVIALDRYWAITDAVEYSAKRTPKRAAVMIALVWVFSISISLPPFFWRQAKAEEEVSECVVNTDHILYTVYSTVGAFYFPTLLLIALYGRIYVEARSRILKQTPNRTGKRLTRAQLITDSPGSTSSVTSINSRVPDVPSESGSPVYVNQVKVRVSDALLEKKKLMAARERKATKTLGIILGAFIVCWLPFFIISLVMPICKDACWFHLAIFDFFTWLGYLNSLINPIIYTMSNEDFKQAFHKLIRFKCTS
T2 sequence (P28223 whole entry, the tested form may be a part): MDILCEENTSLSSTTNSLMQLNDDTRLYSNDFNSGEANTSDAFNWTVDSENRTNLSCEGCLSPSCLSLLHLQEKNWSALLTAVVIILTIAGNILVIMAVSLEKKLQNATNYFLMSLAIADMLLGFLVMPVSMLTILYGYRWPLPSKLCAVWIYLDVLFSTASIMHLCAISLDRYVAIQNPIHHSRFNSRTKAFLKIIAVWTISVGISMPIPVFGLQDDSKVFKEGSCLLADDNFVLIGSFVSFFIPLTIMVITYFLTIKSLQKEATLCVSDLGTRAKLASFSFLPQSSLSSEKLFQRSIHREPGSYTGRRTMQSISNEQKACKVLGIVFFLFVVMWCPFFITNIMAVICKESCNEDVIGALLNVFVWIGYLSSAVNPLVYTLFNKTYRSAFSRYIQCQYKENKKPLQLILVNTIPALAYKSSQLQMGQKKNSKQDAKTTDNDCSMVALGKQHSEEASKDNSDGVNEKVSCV

Row | Structure (SMILES) | Intrinsic clearance (Clint) [1] | half-life (t1/2) [1] | Emax [2] | Intrinsic clearance (Clint) [3] | half-life (t1/2) [3] | Intrinsic clearance (Clint) [4] | half-life (t1/2) [4] | EC50 [5] | Emax [5] | Emax [6] | Emax [7] | Emax [8]
1 | CCN(CC)C(=O)[C@@H]1C=C2c3cccc4[nH]cc(c34)C[C@H]2N(Cc2ccccc2O)C1 [Compound 16, (6aR,9R)—N,N-diethyl-7-(2-hydroxybenzyl)-4,6,6a,7,8,9-hexahydroindolo[4,3-fg]quinoline-9-carboxamide] | 616.3 µL/min/mg | 2.2 min | 26.5% | 1053.2 µL/min/mg | 1.3 min | 285.8 µL/min/mg | 4.9 min | 3.96 nM | 47.6% | 22.3% | 62% | 90.1%
2 | CCN(CC)C(=O)[C@@H]1C=C2c3cccc4[nH]cc(c34)C[C@H]2N(Cc2ccccn2)C1 [Compound 22, (6aR,9R)—N,N-diethyl-7-(pyridin-2-ylmethyl)-4,6,6a,7,8,9-hexahydroindolo[4,3-fg]quinoline-9-carboxamide] | 104.8 µL/min/mg | 13.2 min | 7.74% | 150.0 µL/min/mg | 9.2 min | 58.2 µL/min/mg | 23.8 min | 6.33 nM | 40.6% | 57.3% | 64.5% | 89.2%
3 | CCN(CC)C(=O)[C@@H]1C=C2c3cccc4[nH]cc(c34)C[C@H]2N(CCc2ccccn2)C1 [Compound 23, (6aR,9R)—N,N-diethyl-7-(2-(pyridin-2-yl)ethyl)-4,6,6a,7,8,9-hexahydroindolo[4,3-fg]quinoline-9-carboxamide] | 331.7 µL/min/mg | 4.2 min | 12.5% | 768.7 µL/min/mg | 1.8 min | 193.3 µL/min/mg | 7.2 min | 5.97 nM | 65.2% | 46.2% | 85.4% | 83.7%
4 | CCCN1C[C@H](C(=O)N[C@H](C)CC)C=C2c3cccc4[nH]c(Br)c(c34)C[C@H]21 [Compound 46, (6aR,9R)-5-bromo-N—((R)-sec-butyl)-7-propyl-4,6,6a,7,8,9-hexahydroindolo[4,3-fg]quinoline-9-carboxamide] |  |  | 79% |  |  |  |  |  |  | 69.5% | 69.5% | 78.8%
5 | CCN(CC)C(=O)[C@@H]1C=C2c3cccc4[nH]cc(c34)C[C@H]2N(CCF)C1 [Compound 39, (6aR,9R)—N,N-diethyl-7-(2-fluoroethyl)-4,6,6a,7,8,9-hexahydroindolo[4,3-fg]quinoline-9-carboxamide] |  |  | 85.5% |  |  |  |  |  |  | 91.2% | 95.5% | 99%
6 | CCN(CC)C(=O)[C@@H]1C=C2c3cccc4[nH]c(Br)c(c34)C[C@H]2N(CCCF)C1 [Compound 41, (6aR,9R)-5-bromo-N,N-diethyl-7-(3-fluoropropyl)-4,6,6a,7,8,9-hexahydroindolo[4,3-fg]quinoline-9-carboxamide] |  |  | 84.5% |  |  |  |  |  |  | 39.8% | 75.4% | 61.5%
7 | C=CCN1C[C@H](C(=O)N2[C@@H](C)C[C@@H]2C)C=C2c3cccc4[nH]cc(c34)C[C@H]21 [Compound 27, ((6aR,9R)-7-allyl-4,6,6a,7,8,9-hexahydroindolo[4,3-fg]quinolin-9-yl)((2S,4S)-2,4-dimethylazetidin-1-yl)methanone] |  |  | 96% |  |  |  |  |  |  | 90.8% | 81.1% | 96.9%
